The target of assay [1] is Serine/threonine-protein kinase MARK2 (Homo sapiens) (UniProt Q7KZI7). In words: Selectivity interaction (Upstate Kinase Profiler service (Millipore)) EUB0000056c MARK2. The conditions noted are these: at 1 µM.
Assay [2] has as its target Phosphorylase b kinase gamma catalytic chain, skeletal muscle/heart isoform (Homo sapiens) (UniProt Q16816). Briefly: Selectivity interaction (KinomeScan (DiscoverX)) EUB0001079a PHKG1. The note with it: at 1 µM.
Assay [3] concerns the target T1, 5-hydroxytryptamine receptor 3A (Homo sapiens) (UniProt P46098).
T1 sequence (whole entry): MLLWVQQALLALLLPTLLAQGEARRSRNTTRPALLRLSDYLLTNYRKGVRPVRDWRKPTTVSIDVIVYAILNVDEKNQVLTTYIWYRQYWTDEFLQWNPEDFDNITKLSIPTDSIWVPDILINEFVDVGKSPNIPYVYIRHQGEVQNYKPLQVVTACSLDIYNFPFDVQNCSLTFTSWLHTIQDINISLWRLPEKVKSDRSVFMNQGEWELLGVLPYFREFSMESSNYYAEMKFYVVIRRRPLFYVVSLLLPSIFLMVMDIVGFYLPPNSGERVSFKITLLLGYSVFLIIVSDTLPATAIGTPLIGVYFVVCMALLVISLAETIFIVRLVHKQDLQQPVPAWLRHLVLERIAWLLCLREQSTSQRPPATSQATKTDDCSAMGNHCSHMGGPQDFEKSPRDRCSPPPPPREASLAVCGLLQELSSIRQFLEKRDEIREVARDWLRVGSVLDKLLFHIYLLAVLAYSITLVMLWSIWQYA
Briefly: Selectivity interaction (Panel of kinases, GPCRs, ion channels and transporters (enzymatic assay)) EUB0000223bCl HTR3A.

The target of assay [4] is Non-receptor tyrosine-protein kinase TYK2 (Homo sapiens, UniProt P29597). Briefly: Selectivity interaction (KinomeScan (DiscoverX)) EUB0000607a TYK2. The conditions noted are these: at 10 µM.
Sequence of Non-receptor tyrosine-protein kinase TYK2 (P29597 whole entry): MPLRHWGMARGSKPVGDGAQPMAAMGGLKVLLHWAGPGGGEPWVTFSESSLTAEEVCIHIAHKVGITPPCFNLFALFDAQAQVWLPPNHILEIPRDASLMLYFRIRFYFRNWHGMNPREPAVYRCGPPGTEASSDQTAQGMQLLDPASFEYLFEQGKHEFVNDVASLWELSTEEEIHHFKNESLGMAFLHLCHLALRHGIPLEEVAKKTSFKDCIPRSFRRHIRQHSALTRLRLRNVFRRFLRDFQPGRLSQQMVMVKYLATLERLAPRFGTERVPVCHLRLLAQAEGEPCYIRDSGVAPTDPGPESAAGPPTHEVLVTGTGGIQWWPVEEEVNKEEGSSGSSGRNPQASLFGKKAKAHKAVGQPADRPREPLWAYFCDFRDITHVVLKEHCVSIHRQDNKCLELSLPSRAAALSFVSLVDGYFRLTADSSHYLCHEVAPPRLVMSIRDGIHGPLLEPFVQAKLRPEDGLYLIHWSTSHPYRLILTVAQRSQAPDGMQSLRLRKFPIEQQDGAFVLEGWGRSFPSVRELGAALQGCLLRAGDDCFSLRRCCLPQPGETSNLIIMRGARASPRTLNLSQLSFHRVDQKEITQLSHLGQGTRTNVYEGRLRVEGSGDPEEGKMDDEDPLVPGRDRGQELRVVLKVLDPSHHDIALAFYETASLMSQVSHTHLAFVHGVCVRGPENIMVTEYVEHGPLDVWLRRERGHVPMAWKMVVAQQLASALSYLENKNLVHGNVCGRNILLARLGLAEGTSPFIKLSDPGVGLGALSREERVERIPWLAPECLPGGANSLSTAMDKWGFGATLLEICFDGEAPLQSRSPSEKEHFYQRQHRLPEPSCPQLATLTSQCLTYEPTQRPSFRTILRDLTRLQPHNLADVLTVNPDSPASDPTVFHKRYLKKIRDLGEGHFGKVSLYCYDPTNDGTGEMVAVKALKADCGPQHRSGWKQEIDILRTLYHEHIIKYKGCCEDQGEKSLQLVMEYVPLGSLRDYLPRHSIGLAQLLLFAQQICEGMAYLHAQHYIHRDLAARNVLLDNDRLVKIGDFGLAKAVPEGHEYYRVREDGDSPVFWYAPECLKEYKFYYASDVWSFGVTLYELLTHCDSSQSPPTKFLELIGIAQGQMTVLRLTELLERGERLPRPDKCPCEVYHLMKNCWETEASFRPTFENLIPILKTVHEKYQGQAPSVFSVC
Assay [5] has as its target T2, Rhodopsin kinase GRK7 (Homo sapiens) (UniProt Q8WTQ7).
T2 sequence (whole entry): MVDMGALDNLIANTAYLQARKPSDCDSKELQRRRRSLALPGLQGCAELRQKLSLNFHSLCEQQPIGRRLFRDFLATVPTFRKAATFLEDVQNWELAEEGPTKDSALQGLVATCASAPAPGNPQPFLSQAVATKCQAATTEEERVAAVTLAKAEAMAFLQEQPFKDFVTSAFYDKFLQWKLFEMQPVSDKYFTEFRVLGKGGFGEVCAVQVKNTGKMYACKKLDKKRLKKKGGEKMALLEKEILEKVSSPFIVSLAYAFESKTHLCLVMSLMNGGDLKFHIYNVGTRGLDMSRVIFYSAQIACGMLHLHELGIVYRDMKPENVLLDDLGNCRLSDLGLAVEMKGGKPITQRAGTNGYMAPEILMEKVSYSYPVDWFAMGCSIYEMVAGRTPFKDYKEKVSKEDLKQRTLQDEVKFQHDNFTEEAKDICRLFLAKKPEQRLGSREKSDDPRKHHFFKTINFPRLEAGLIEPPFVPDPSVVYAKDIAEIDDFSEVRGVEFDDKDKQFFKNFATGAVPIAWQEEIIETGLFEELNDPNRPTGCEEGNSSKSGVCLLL
Briefly: Selectivity interaction (KinomeScan (DiscoverX)) EUB0000229b GRK7. The note with it: at 10 µM.

In assay [6] the target is T3, NUAK family SNF1-like kinase 2 (Homo sapiens) (UniProt Q9H093).
T3 sequence (whole entry): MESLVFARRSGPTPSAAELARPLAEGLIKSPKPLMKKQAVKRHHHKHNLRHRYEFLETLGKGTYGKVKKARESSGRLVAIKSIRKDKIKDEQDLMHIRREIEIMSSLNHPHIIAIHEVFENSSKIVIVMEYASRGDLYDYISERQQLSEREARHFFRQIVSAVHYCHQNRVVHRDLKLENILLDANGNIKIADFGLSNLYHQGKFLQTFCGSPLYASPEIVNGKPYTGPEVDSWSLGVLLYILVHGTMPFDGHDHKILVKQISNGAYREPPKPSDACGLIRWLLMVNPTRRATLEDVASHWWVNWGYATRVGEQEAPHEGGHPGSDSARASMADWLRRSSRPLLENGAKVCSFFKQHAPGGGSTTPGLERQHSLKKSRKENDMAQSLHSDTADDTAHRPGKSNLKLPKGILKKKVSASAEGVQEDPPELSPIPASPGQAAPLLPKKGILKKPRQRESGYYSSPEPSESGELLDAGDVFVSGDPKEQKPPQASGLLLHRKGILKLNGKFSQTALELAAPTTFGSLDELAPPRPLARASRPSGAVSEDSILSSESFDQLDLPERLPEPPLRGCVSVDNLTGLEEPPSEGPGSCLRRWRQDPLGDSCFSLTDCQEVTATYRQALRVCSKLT
In words: Selectivity interaction (KinomeScan (DiscoverX)) EUB0000229b NUAK2. The note with it: at 10 µM.

Assay [7] concerns the target T4, Serine/threonine-protein kinase Chk1 (Homo sapiens) (UniProt O14757).
T4 sequence (whole entry): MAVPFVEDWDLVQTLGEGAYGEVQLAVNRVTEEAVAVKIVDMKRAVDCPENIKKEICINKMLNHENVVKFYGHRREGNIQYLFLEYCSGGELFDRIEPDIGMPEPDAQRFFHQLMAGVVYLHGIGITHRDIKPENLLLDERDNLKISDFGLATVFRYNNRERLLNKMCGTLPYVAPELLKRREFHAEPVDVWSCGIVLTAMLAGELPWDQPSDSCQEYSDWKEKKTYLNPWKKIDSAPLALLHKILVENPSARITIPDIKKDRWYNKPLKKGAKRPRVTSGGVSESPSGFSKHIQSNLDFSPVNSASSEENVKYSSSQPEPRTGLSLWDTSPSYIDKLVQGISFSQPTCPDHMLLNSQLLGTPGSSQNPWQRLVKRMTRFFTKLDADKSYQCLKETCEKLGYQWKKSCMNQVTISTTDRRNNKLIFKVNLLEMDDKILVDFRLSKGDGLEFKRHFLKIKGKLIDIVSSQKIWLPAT
Briefly: Selectivity interaction (Kinase panel (KiNativ target engagement assay in Jurkat cells)) EUB0001635a CHEK1. The conditions noted are these: at 1 µM. It counts as cell-based.

Sequence of Serine/threonine-protein kinase MARK2 (Homo sapiens) (Q7KZI7 whole entry, canonical isoform): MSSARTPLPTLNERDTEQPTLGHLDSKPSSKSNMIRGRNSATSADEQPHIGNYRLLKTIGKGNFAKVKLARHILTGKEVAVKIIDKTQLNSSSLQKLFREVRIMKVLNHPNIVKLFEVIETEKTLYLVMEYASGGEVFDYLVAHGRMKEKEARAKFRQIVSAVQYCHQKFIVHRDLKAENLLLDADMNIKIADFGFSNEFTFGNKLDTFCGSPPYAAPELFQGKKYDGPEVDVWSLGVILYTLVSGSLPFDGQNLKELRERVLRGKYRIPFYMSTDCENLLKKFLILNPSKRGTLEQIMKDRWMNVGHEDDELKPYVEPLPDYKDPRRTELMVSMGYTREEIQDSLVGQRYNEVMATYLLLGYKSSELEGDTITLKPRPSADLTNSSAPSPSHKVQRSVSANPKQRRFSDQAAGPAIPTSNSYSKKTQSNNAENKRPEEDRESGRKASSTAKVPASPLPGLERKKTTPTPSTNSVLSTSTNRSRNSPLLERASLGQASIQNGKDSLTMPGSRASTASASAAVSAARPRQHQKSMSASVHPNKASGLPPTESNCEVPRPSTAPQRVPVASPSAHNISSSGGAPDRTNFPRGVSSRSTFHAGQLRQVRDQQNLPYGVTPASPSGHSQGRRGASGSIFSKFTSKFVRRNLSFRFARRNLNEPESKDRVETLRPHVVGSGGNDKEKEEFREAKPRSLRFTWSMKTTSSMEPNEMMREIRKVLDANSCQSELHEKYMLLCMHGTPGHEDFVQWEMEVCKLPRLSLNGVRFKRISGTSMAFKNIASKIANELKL
Sequence of Phosphorylase b kinase gamma catalytic chain, skeletal muscle/heart isoform (Homo sapiens) (Q16816 whole entry, looked up, canonical isoform): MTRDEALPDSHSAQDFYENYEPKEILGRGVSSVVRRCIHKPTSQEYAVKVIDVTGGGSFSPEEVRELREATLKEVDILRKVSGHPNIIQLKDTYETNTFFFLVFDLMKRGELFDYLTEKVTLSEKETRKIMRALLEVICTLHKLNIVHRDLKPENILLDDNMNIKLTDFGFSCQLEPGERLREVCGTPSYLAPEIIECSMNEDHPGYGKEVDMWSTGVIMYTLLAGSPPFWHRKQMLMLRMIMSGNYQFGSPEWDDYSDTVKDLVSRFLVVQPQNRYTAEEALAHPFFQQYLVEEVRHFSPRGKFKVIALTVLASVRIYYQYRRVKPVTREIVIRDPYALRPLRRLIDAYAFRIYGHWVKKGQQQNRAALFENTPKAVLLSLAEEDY

In turn, `Cc1ccc(-c2ccc3c(ccc4sc5c(c43)NC[C@@H](C)NC5=O)n2)cn1` registered a % of inhibition in assay [1] of 6%. Molecule `Nc1cnc(N2CCc3cc(S(=O)(=O)Nc4c(F)cc(Cl)cc4F)cc(N4CCCC4=O)c32)nc1` [TP-020n] showed a % of control in assay [2] of 71%. Turning to `COc1cc(C(=O)N2CC[C@@H](O)[C@@H](N)C2)cc2nc(-c3cc4ccccc4n3CC3CC3)n(C)c12`, in assay [3], the pXC50 is 4.3 M. In assay [4], `CNC(=O)Nc1ccc(-c2nc(N3CC4CCC(C3)O4)c3cnn(C4CCC5(CC4)OCCO5)c3n2)cc1` came in with a % of control of 100%. On to `COc1cc(N(C)c2ccnc3ccc(C(F)(F)F)cc23)cc(OC)c1OC`, for which the % binding in assay [5] was determined as 69%; in assay [6], 86%. Turning to `C=CC(=O)Nc1ccc(C(=O)Nc2[nH]nc3c2CN(C(=O)N[C@H](CN(C)C)c2ccccc2)C3(C)C)cc1`, the % of engagement in assay [7] (Selectivity number of off-targets 0.0, Selectivity number of targets 233.0, Source Knowledge https://www.sciencedirect.com/science/article/pii/S2451945619300674?via%3Dihub) is 5.4%; in assay [7], 16.4%.
